Experimental data reported in patent US9120812B2, “Pyrimidooxazocine derivatives as mTOR-inhibitors” (SANOFI, priority 2012, dated 2015).

How the values were obtained:
[1] = target: mTOR (human recombinant aa mTOR 1360-2549) (Homo sapiens (Human), UniProt P42345); test: mTOR enzymatic test by TR-FRET (phosphorylation of GFP-4EBP1); type: biochemical
Summary of the method: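 TR-FRET detection of GFP-4EBP1 phosphorylation by a terbium-labelled anti-phospho-Thr46 antibody. Kinase reaction ran 30 min at room temperature, was quenched with EDTA (10 mM final) plus Tb-antibody (2 nM final) and left 60 min. Emission at 520 and 490 nm after 340 nm excitation, reported as the 520/490 ratio.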

[2] = target: PI3Kα (p110α/p85α) (Homo sapiens (Human), UniProt P42336); test: PI3Kα enzymatic test by measuring the consumption of ATP; type: biochemical
Summary of the method: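 p110α/p85α (1.7 μg/ml) with 50 μM PIP2 and 2 μM ATP in pH 7.5 Tris buffer with EGTA, MgCl2, Chaps, DTT; reaction 90 min. Remaining ATP measured by luciferin/luciferase luminescence; IC50 from threefold serial dilutions spanning at least 10 000-fold.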

[3] = test system: U87MG tumour cells; test: Test of in vitro proliferation of U87MG tumour cells; type: cell-based; details: Homo sapiens, U-87 MG, 72 h, U87MG cells, 72 hours; read-out: U87 Cell Proliferation IC50
Procedure: Model 4: Test of in vitro Proliferation of U87MG Tumour Cells.
The cell growth is determined with the reagent CellTiter 96 AQueous One Solution Cell Proliferation Assay from Promega (Cat. No. G3581).

[4] = test system: Akt-pS473 in U87MG cells; details: Homo sapiens, U-87 MG; for IC50: read-out: U87 Akt-pS473 % Inhibition or IC50, nM (IC50), U87MG cells

Chain of PI3Kα (p110α/p85α) (P42336 whole entry): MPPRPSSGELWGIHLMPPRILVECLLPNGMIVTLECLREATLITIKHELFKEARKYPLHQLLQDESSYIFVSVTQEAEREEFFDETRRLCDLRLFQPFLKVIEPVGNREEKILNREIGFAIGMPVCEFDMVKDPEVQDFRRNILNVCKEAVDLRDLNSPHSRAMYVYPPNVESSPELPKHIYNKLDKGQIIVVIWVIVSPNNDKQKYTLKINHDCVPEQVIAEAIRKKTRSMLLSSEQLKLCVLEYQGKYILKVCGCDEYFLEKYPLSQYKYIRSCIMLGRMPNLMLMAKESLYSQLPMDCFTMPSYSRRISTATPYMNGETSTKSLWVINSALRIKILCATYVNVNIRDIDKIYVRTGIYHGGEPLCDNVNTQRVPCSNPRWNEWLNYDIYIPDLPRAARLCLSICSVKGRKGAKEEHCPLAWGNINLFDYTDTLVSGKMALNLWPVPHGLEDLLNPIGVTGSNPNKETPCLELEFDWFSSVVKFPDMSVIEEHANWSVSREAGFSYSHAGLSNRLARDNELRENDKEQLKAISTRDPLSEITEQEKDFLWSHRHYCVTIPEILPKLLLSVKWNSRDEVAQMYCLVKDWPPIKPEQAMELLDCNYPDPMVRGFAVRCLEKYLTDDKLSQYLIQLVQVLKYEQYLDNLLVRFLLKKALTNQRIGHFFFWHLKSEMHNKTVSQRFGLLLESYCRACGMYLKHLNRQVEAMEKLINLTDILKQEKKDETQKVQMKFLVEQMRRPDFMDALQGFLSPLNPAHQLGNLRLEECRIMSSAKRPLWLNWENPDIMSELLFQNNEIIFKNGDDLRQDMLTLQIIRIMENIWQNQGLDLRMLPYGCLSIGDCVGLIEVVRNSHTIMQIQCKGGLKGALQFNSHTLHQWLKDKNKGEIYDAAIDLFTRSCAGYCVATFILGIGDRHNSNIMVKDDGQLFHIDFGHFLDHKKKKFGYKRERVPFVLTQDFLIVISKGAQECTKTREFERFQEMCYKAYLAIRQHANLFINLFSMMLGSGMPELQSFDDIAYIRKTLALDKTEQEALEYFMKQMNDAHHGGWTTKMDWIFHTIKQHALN
Chain of PI3Kα (p110α/p85α) (P27986 whole entry partner): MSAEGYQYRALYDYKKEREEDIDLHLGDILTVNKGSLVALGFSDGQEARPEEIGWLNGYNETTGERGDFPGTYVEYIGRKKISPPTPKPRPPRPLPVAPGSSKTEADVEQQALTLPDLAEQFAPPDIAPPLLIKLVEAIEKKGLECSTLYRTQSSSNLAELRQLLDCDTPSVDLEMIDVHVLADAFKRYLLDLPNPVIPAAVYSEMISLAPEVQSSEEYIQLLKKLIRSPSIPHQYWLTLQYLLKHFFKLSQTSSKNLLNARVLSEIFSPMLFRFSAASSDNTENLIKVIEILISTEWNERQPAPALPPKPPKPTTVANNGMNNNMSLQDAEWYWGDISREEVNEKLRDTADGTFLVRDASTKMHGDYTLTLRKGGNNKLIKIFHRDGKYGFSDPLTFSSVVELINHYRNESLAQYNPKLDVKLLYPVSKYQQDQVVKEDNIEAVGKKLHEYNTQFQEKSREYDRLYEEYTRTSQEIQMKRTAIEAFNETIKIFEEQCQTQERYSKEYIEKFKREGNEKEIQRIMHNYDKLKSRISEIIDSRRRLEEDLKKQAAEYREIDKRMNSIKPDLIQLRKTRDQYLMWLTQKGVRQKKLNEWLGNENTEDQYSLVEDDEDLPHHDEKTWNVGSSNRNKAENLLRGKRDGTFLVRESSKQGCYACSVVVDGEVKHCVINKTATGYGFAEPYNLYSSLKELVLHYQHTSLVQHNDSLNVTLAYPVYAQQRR
Chain of mTOR (human recombinant aa mTOR 1360-2549) (P42345 1360-2549): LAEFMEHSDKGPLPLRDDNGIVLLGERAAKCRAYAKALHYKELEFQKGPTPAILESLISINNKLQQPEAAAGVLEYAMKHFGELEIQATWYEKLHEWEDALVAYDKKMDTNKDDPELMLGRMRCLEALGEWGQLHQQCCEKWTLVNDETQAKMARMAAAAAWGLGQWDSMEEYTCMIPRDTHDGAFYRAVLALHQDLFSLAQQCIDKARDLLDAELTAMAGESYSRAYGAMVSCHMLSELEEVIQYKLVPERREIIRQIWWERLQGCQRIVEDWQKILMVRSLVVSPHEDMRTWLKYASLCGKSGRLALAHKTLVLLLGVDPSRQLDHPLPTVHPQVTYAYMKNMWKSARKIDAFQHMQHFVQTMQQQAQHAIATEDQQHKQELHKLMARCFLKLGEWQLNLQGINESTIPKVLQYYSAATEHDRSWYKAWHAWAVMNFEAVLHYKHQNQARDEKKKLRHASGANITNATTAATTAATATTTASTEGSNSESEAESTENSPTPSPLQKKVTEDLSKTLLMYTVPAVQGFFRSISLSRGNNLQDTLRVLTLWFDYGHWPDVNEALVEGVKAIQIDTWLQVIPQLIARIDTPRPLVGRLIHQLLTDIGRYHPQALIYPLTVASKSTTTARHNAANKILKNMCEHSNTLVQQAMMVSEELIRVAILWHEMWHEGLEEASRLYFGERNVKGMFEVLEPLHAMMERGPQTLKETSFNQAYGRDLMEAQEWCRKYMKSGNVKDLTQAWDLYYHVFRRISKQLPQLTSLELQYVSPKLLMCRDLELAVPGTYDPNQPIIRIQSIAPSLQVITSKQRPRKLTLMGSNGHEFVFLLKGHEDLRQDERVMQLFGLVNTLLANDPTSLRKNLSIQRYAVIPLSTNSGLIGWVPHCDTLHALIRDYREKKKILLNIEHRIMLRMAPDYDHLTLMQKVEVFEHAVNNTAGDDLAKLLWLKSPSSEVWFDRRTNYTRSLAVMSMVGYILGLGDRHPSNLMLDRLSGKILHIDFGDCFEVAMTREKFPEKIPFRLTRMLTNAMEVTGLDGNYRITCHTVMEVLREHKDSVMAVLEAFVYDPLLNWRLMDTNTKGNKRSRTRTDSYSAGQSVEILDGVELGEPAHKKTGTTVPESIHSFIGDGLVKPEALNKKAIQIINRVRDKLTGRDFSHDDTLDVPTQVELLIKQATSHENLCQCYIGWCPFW

Compound | IC50 [1] [nM] | PI3Ka IC50 [2] [µM] | IC50 [3] [nM] | IC50 [4] [nM] | inhibition at 1 µM ([4]; read-out: U87 Akt-pS473 % Inhibition) [%]
CCN1CC(C)(C)Oc2nc(N3CCOC[C@@H]3C)nc(-c3ccc(NC(=O)Nc4ccc(F)cc4F)cc3)c2C1=O [Example 191, 1-(2,4-Difluorophenyl)-3-{4-[6-ethyl-8,8-dimethyl-2-((S)-3-methylmorpholin-4-yl)-5-oxo-5,6,7,8-tetrahydro-9-oxa-1,3,6-triazabenzocyclohepten-4-yl]phenyl}urea] | 24 | 0.57 | 105 | 26 | 
CCN1CC(C)(C)Oc2nc(N3CCOC[C@@H]3C)nc(-c3ccc(NC(=O)Nc4ccc(N5CCN(C)CC5)nc4)c(F)c3)c2C1=O [Example 171, 1-{4-[6-Ethyl-8,8-dimethyl-2-((S)-3-methylmorpholin-4-yl)-5-oxo-5,6,7,8-tetrahydro-9-oxa-1,3,6-triazabenzocyclohepten-4-yl]-2-fluorophenyl}-3-[6-(4-methylpiperazin-1-yl)pyridin-3-yl]urea] | 37 | 0.308 | 91 | 41 | 
CCN1CC(C)(C)Oc2nc(N3C4CCC3COC4)nc(-c3ccc(NC(=O)Nc4cc(OC)ccn4)cc3F)c2C1=O [Example 89, 1-{4-[6-Ethyl-8,8-dimethyl-2-(3-oxa-8-azabicyclo[3.2.1]oct-8-yl)-5-oxo-5,6,7,8-tetrahydro-9-oxa-1,3,6-triazabenzocyclohepten-4-yl]-3-fluorophenyl}-3-(4-methoxypyridin-2-yl)urea] | 84 | >10 | 221 | 260 | 
CCN1CC(C)(C)Oc2nc(N3CC4CCC(C3)O4)nc(-c3ccc(NC(=O)Nc4cnn(C)c4)cc3)c2C1=O [Example 126, 1-{4-[6-Ethyl-8,8-dimethyl-2-(8-oxa-3-azabicyclo[3.2.1]oct-3-yl)-5-oxo-5,6,7,8-tetrahydro-9-oxa-1,3,6-triazabenzocyclohepten-4-yl]phenyl}-3-(1-methyl-1H-pyrazol-4-yl)urea] | 13 | 2.963 | 225 | 68 | 
CCN1CC(C)(C)Oc2nc(N3CC4CCC(C3)O4)nc(-c3ccc(NC(=O)Nc4ccc(N5CCOCC5)nc4)c(F)c3)c2C1=O [Example 200, 1-{4-[6-Ethyl-8,8-dimethyl-2-(8-oxa-3-azabicyclo[3.2.1]oct-3-yl)-5-oxo-5,6,7,8-tetrahydro-9-oxa-1,3,6-triazabenzocyclohepten-4-yl]-2-fluorophenyl}-3-(6-morpholin-4-ylpyridin-3-yl)urea] | 52 | >10 | 108 | 9 | 
COCCN1CC(C)(C)Oc2nc(N3CC4CCC(C3)O4)nc(-c3ccc(NC(=O)Nc4ccon4)cc3)c2C1=O [Example 172, 1-Isoxazol-3-yl-3-{4-[6-(2-methoxyethyl)-8,8-dimethyl-2-(8-oxa-3-azabicyclo[3.2.1]oct-3-yl)-5-oxo-5,6,7,8-tetrahydro-9-oxa-1,3,6-triazabenzocyclohepten-4-yl]phenyl}urea] | 20 | <10 | 198 | 98 | 
CC[C@H]1COCCN1c1nc2c(c(-c3ccc(NC(=O)NC)c(F)c3)n1)C(=O)N(CC)CC(C)(C)O2 [Example 228, 1-{4-[6-Ethyl-2-((S)-3-ethylmorpholin-4-yl)-8,8-dimethyl-5-oxo-5,6,7,8-tetrahydro-9-oxa-1,3,6-triazabenzocyclohepten-4-yl]-2-fluorophenyl}-3-methylurea] | 70 | 6.6 | 229 | 72 | 
CCN1CC(C)(C)Oc2nc(N3CC4CCC(C3)O4)nc(-c3ccc(NC(=O)OC[C@H](C)O)cc3)c2C1=O [Example 88, {4-[6-Ethyl-8,8-dimethyl-2-(8-oxa-3-azabicyclo[3.2.1]oct-3-yl)-5-oxo-5,6,7,8-tetrahydro-9-oxa-1,3,6-triazabenzocyclohepten-4-yl]phenyl}carbamic acid (S)-2-hydroxypropyl ester] | 198 | >10 | 1900 |  | 65
CCN1CC(C)(C)Oc2nc(N3C4CCC3COC4)nc(-c3ccc(NC(=O)Nc4ccc(N5C[C@@H]6C[C@H]5CO6)nc4)c(F)c3)c2C1=O [Example 253, 1-{4-[6-Ethyl-8,8-dimethyl-2-(3-oxa-8-azabicyclo[3.2.1]oct-8-yl)-5-oxo-5,6,7,8-tetrahydro-9-oxa-1,3,6-triazabenzocyclohepten-4-yl]-2-fluorophenyl}-3-[(1S,4S)-6-(2-oxa-5-azabicyclo[2.2.1]hept-5-yl)pyridin-3-yl]urea] | 72 | >10 | 167 | 68 | 
CCN1CC(C)(C)Oc2nc(N3CC4CCC(C3)O4)nc(-c3ccc(NC(=O)Nc4cncc(OC)n4)cc3)c2C1=O [Example 28, 1-{4-[6-ethyl-8,8-dimethyl-2-(8-oxa-3-azabicyclo[3.2.1]oct-3-yl)-5-oxo-5,6,7,8-tetrahydro-9-oxa-1,3,6-triazabenzocyclohepten-4-yl]phenyl}-3-(6-methoxypyrazin-2-yl)urea] | 59 | >10 | 508 | 42 | 
CNC(=O)Nc1ccc(-c2nc(N3CCOC[C@@H]3C)nc3c2C(=O)N(CCOC)CC(C)(C)O3)cc1F [Example 225, 1-{2-Fluoro-4-[6-(2-methoxyethyl)-8,8-dimethyl-2-((S)-3-methylmorpholin-4-yl)-5-oxo-5,6,7,8-tetrahydro-9-oxa-1,3,6-triazabenzocyclohepten-4-yl]phenyl}-3-methylurea] | 36 | 1.36 | 365 | 91 | 
COc1ccc(NC(=O)Nc2ccc(-c3nc(N4CC5CCC(C4)O5)nc4c3C(=O)N(C)CC(C)(C)O4)cc2)nc1 [Example 54, 1-(5-Methoxypyridin-2-yl)-3-{4-[6,8,8-trimethyl-2-(8-oxa-3-azabicyclo[3.2.1]oct-3-yl)-5-oxo-5,6,7,8-tetrahydro-9-oxa-1,3,6-triazabenzocyclohepten-4-yl]phenyl}urea] | 32 | 3 | 161 | 41 | 
CCN1CC(C)(C)Oc2nc(N3CC4CCC(C3)O4)nc(-c3ccc(NC(=O)Nc4cc(OC)ccn4)cc3)c2C1=O [Example 35, 1-{4-[6-Ethyl-8,8-dimethyl-2-(8-oxa-3-azabicyclo[3.2.1]oct-3-yl)-5-oxo-5,6,7,8-tetrahydro-9-oxa-1,3,6-triazabenzocyclohepten-4-yl]phenyl}-3-(4-methoxypyridin-2-yl)urea] | 37 | >10 | 336 | 75 | 
CCN1CC(C)(C)Oc2nc(N3CC4CCC(C3)O4)nc(-c3ccc(NC(=O)Nc4ccc(OC)nn4)cc3)c2C1=O [Example 146, 1-{4-[6-Ethyl-8,8-dimethyl-2-(8-oxa-3-azabicyclo[3.2.1]oct-3-yl)-5-oxo-5,6,7,8-tetrahydro-9-oxa-1,3,6-triazabenzocyclohepten-4-yl]phenyl}-3-(6-methoxypyridazin-3-yl)urea] | 35 | >10 | 441 | 82 | 
